Measured values as given in patent US6593362B2, “Non-peptidic cyclophilin binding compounds and their use” (Guilford Pharmaceuticals Inc., priority 2001, dated 2003).

Key:
CyP A = CyP A (Homo sapiens, UniProt P62937); assay: biochemical; conditions: for inhibition at 10 µM: read-out: % Inhibition at 10 μM
Protocol: A number of substrates for rotamase are known in the art or can be derived from those known. Typically, the substrate contacts a sample containing a protein with rotamase activity and the conversion of the substrate is detected after a period of time. The method for detecting conversion of the substrate will vary with the particular substrate chosen.
The following were added to a plastic cuvette: […] of ice cold assay buffer (25 mM HEPES, pH 7.8, 100 mM NaCl), 10 μL of CyP A (2.5 μM in 10 mM Tris-Cl pH 7.5, 100 mM NaCl, 1 mM dithiothreitol), 25 μL of chymotrypsin (50 mg/ml in 1 mM HCl), and 10 μL of test compound, at various concentrations, in dimethyl sulfoxide. The reaction was initiated by the addition of 5 μL of substrate (succinyl-Ala-Phe-Pro-Phe-para-nitroanilide, 5 mg/mL in 470 mM LiCl in trifluoroethanol). The absorbance at 390 nm versus time was monitored for 90 seconds using a spectrophotometer.
While CyP A is used in these examples, other CyP proteins can be substituted.

neuronal cells = assay: Neurotrophic or neuroprotectant activity (assay not specified); format: cell-based
Excerpt: In general, activity in the nervous system for a particular compound can be identified by assaying for the ability to promote neurite outgrowth, protect neurons from damage by chemical treatments, promote the growth of neurons or neuronal cells, recover lost or damaged motor, functional or cognitive ability associated with nervous tissue or organs of the nervous system, or regenerate neurons. These activities can be useful in treating, diagnosing, or prognosing a number of human disease conditions, including, but not limited to, Parkinson's disease, Alzheimer's disease, amyotrophic lateral sclerosis (ALS), traumatic injury, spinal cord injury, multiple sclerosis, diabetic neuropathy, neuropathy associated with medical treatments such as chemotherapy, ischemia or ischemia-induced injury, stroke, oxygen deprivation, retinopathies, peripheral neuropathies, and neuropathies associated with viral infection.
Preferred methods for detecting neuronal activity include a neuroprotective assay, in which a compound is tested for the ability to protect against treatment causing glutamate neurotoxicity. Sensory neuronal cultures (DRG) can also be assayed for neurite outgrowth, an assay for neurotrophic activity. […] Immunohistochemistry can aid in the visualization and quantitation of neurites as compared to control.

ventral horn motoneurons = assay: Neuroprotection assay, THA-treated organotypic spinal cord slice cultures; format: cell-based; conditions: THA 200 μM + compound 10 μM, rat spinal cord slice cultures, FIGS. 1-6
Protocol: For each of FIGS. 1-6, the bar graphs represent the number of viable neurons after a specified treatment regimen employed in a neuroprotective activity assay. The cells of the experiments were treated with a control solution, a neurotoxic solution, and neurotoxic+experimental compound solution. The statistical significance, p, is calculated using the standard 2 tailed Student's t test.
Protection of cells from calcium-related physiological stress can be assessed in a neuroprotection assay. Organotypic slice cultures of rat spinal cord tissue display a protracted loss of ventral horn motoneurons when exposed to the glutamate uptake inhibitor THA. […] Each experiment consisted of two 6-well plates with 5 slices from 4 different animals per well. Media changes were performed every 3 to 4 days. […] The control was an untreated sample with 0.1% DMSO as vehicle. The THA control was a THA treated sample with 0. 1% DSMO as vehicle. Two wells were used per condition. One media change with new THA and compounds was performed. The experiment was stopped 6 to 8 days following drug treatment (13-15 total days in vitro, DIV) as dictated by visual assessment of lesion, by fixation with 4% paraformaldehyde/0.1 M phosphate buffer for 30 minutes. Slices were permeabilized with 100% cold methanol for 10 minutes. Slices were transferred to staining wells. The slices were blocked with 10% horse serum/TBS. Primary antibody incubation was overnight at 4° C. with SMI-32 antibody 1:5000 in 2% horse serum/TBS. SMI-32 is specific towards the unphosphorylated H neurofilament subunit, and was here utilized as a marker for ventral horn motoneurons. A Vectastain ABC Elite Kit with rat absorbed anti-mouse secondary antibody was used with DAB to stain the slices. The slices were mounted under DPX mounting solution for microscopy.
Quantification of surviving neurons was performed on a Zeiss Axiovert microscope. Neuronal survival was determined by observing an intact neuronal cell body with processes located ventrally of the central canal in each hemisphere. This correlated to laminae VII, VIII and IX. Each hemisphere was counted individually. The statistics were performed with StatView software on a minimum of three different experiments per condition and significance was determined as compared to THA control. The percent of protection was determined from the average number of living neurons by the following equation: (drug treatment condition —THA control)/(Untreated control-THA control).

CyP A, sequence (P62937 whole entry): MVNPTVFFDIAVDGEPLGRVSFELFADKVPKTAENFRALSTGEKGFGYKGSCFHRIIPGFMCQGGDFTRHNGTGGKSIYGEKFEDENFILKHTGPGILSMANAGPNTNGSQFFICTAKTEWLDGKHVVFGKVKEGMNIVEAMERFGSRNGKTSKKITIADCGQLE

Row | Compound | IC50 (CyP A) [nM] | inhibition at 10 µM (CyP A) [%] | also measured
1 | O=C(Nc1cccc(S(=O)(=O)NC(c2ccccc2)c2ccccc2)c1)C(c1ccccc1)c1ccccc1 [Compound 17] | 650 | 99 | 
2 | O=C(Nc1cccc2ccccc12)NC1CCCC(NC(=O)Nc2cccc3ccccc23)C1 (centres unmarked) [Compound 10] | 4500 |  | 
3 | O=C(Nc1cc(Cl)cc(Cl)c1)NC1CCCC(NC(=O)Nc2cc(Cl)cc(Cl)c2)C1 (centres unmarked) [Compound 23] |  | 100 | 
4 | O=C(NCC1CCCC(CNC(=O)Nc2cc(Br)cc(Br)c2)C1)Nc1cc(Br)cc(Br)c1 (centres unmarked) [Compound 26] |  | 100 | 
5 | O=C(Nc1ccc(Br)cc1Br)NC1CCCC(NC(=O)Nc2ccc(Br)cc2Br)C1 (centres unmarked) [Compound 24] |  | 100 | 
6 | CSc1ccc(Cl)cc1C(=O)Nc1cccc(NC(=O)c2cc(Cl)ccc2SC)c1 [Compound 6] |  | 100 | neurotrophic or neuroprotectant activity (neuronal cells): possess neurotrophic or neuroprotectant activity
7 | O=C(Nc1cc(Cl)cc(Cl)c1)Nc1cccc(NC(=O)Nc2cc(Cl)cc(Cl)c2)c1 [Compound 28] |  | 100 | 
8 | O=C(Nc1ccc(I)cc1)Nc1cc(NC(=O)Nc2ccc(I)cc2)c(Br)cc1Br [Compound 3] | 600 |  | neuroprotective activity (number of viable neurons) (ventral horn motoneurons): displays neuroprotective activity
9 | O=C(Nc1ccccc1)Nc1cc(NC(=O)Nc2ccccc2)cc(C(F)(F)F)c1 [Compound 7] |  | 100 | neurotrophic or neuroprotectant activity (neuronal cells): possess neurotrophic or neuroprotectant activity
10 | O=S(=O)(Nc1cccc(OCCc2cccc3ccccc23)c1)c1cccc2ccccc12 [Compound 13] | 830 | 100 | melting point: 165 to 167 °C
11 | COc1cccc(NC(=O)NC2CCCC(NC(=O)Nc3cccc(OC)c3)C2)c1 (centres unmarked) [Compound 12] | 9500 | 47.7 | neuroprotective activity (number of viable neurons) (ventral horn motoneurons): displays neuroprotective activity
12 | O=C(NCc1cccc(CNC(=O)Nc2cc(Cl)cc(Cl)c2)c1)Nc1cc(Cl)cc(Cl)c1 [Compound 30] |  | 88 | 
13 | O=C(Nc1cc(Cl)cc(Cl)c1)c1cccc(C(=O)Nc2cc(Cl)cc(Cl)c2)c1 [Compound 14] |  | 100 | 
14 | Cc1ccc(NC(=O)N(Cc2ccccc2)Cc2ccccc2)cc1NC(=O)N(Cc1ccccc1)Cc1ccccc1 [Compound 4] | 800 | 100 | neuroprotective activity (number of viable neurons) (ventral horn motoneurons): displays neuroprotective activity
15 | O=C(Nc1cccc(S(=O)(=O)NC(c2ccccc2)c2ccccc2)c1)c1cc(Cl)cc(Cl)c1 [Compound 18] | 520 | 100 | 
16 | O=C(Nc1cccc(NC(=O)Nc2ccc(Br)cc2Br)c1)Nc1ccc(Br)cc1Br [Compound 29] |  | 89 | 
17 | O=C(NCc1cccc2ccccc12)c1cccc(NC(=O)c2cc(Cl)cc(Cl)c2)c1 [Compound 16, {3-[(3,5-dichlorophenyl)carbonylamino]phenyl}-N-(naphthylmethyl) formamide] |  | 100 | melting point: 205 to 208 °C
18 | O=C(Nc1cccc(NC(=O)Nc2ccon2)c1)Nc1ccon1 [Compound 11] | 4000 | 93 | neuroprotective activity (number of viable neurons) (ventral horn motoneurons): displays neuroprotective activity
19 | cyclosporin A [CsA, reference compound] |  |  | neuroprotective activity (number of viable neurons) (ventral horn motoneurons): maintains neuronal viability
20 | O=C(NCc1cccc(CNC(=O)Nc2ccc(Br)cc2Br)c1)Nc1ccc(Br)cc1Br [Compound 31] |  | 100 | 
21 | O=C(NCC1CCCC(CNC(=O)Nc2cc(Cl)cc(Cl)c2)C1)Nc1cc(Cl)cc(Cl)c1 (centres unmarked) [Compound 25] |  | 100 | 
22 | O=C(Nc1cccc(NC(=O)N(c2ccccc2)c2ccccc2)c1)N(c1ccccc1)c1ccccc1 [Compound 22] |  | 100 | 
23 | O=C(NCc1cccc2ccccc12)Nc1cccc(NC(=O)NCc2cccc3ccccc23)c1 [Compound 21] |  | 100 | 
24 | Cc1ccc(NC(=O)Nc2cccc(NC(=O)Nc3ccc(C)cc3C)c2)c(C)c1 [Compound 27] |  | 100 | 
25 | NC(=O)c1ccccc1NC(=O)Nc1cc(NC(=O)Nc2ccccc2C(N)=O)c(Br)cc1Br [Compound 1] |  | 100 | 
26 | CN(C)c1ccc(NC(=O)Nc2cc(NC(=O)Nc3ccc(N(C)C)cc3)c(Br)cc2Br)cc1 [Compound 19] | 2900 | 98 | 
